In the NIST ThermoML archive (doi:10.1021/je900596d):

Conditions: 353.12 K, Fluid (supercritical or subcritical phases), Vibrating tube method

FC(F)=C(F)C(F)(F)F [hexafluoropropene]
Conditions	mass density [kg/m3]
251.4 kPa	13.222
262.8 kPa	13.844
272.6 kPa	14.383
303.9 kPa	16.11
313 kPa	16.554
322.1 kPa	17.107
330.9 kPa	17.558
340 kPa	18.069
349.1 kPa	18.584
358.7 kPa	19.177
369.1 kPa	19.754
379.1 kPa	20.272
389.1 kPa	20.831
398.8 kPa	21.42
402.9 kPa	21.597
407.6 kPa	21.905
413.1 kPa	22.161
418.2 kPa	22.524
427.2 kPa	23.019
456.1 kPa	24.636
465.8 kPa	25.243
475.9 kPa	25.82
485.6 kPa	26.38
494.8 kPa	26.85
499.7 kPa	27.22
504.9 kPa	27.48
509.8 kPa	27.78
514.2 kPa	28
524.1 kPa	28.5
533.5 kPa	29.18
538.4 kPa	29.45
545.1 kPa	30
567 kPa	31.29
590.2 kPa	32.66
613.6 kPa	34.14
636.8 kPa	35.5
660.1 kPa	36.92
683.4 kPa	38.37
706.6 kPa	39.74
729.7 kPa	41.24
752.5 kPa	42.62
775.3 kPa	44.06
796.9 kPa	45.46
816.7 kPa	46.73
836 kPa	47.99
854.6 kPa	49.09
872.3 kPa	50.27
890.1 kPa	51.44
907.5 kPa	52.57
924.8 kPa	53.65
942.1 kPa	54.86
975.7 kPa	57.1
992.2 kPa	58.29
1023.7 kPa	60.42
1038.9 kPa	61.48
1054.5 kPa	62.56
1070 kPa	63.66
1085.8 kPa	64.72
1101.6 kPa	65.79
1116.8 kPa	66.89
1131.5 kPa	67.98
1146.8 kPa	69
1161.5 kPa	70.08
1205.5 kPa	73.34
1219.6 kPa	74.41
1247.6 kPa	76.44
1261.7 kPa	77.55
1275.7 kPa	78.61
1303.4 kPa	80.62
1330.3 kPa	82.8
1356.9 kPa	84.86
1383.3 kPa	86.96
1408.9 kPa	88.93
1434.2 kPa	91.01
1459.3 kPa	93.02
1483.9 kPa	95.18
1508 kPa	97.12
1531.3 kPa	99.1
1554.6 kPa	101.06
1577.1 kPa	102.97
1599.7 kPa	105.06
1621.5 kPa	106.97
1643.3 kPa	108.91
1664 kPa	110.78
1684.8 kPa	112.72
1705.1 kPa	114.65
1725.3 kPa	116.53
1745.4 kPa	118.38
1764.4 kPa	120.27
1783 kPa	122.06
1801.8 kPa	123.93
1819.8 kPa	125.68
1837.5 kPa	127.52
1854.8 kPa	129.26
1871.7 kPa	131.01
1887.6 kPa	132.69
1901.9 kPa	134.3
1921.8 kPa	136.34
1936 kPa	137.88
1955.9 kPa	140.04
1970.5 kPa	141.59
1990.1 kPa	143.83
2027.5 kPa	148.08
2047 kPa	150.4
2061 kPa	152.1
2079.9 kPa	154.31
2102.5 kPa	157.14
2119.5 kPa	159.22
2136.1 kPa	161.36
2152.9 kPa	163.58
2175.2 kPa	166.51
2194.7 kPa	169.1
2217.5 kPa	172.27
2237.1 kPa	175.05
2258.4 kPa	178.08
2276.1 kPa	180.72
2293.5 kPa	183.23
2310.9 kPa	185.85
2329.3 kPa	188.76
2343.8 kPa	191.1
2361 kPa	193.93
2378.6 kPa	196.85
2393.5 kPa	199.32
2410.2 kPa	202.31
2428.4 kPa	205.51
2442.4 kPa	208.12
2463 kPa	211.98
2479.5 kPa	215.15
2502.3 kPa	219.78
2520.3 kPa	223.6
2540.4 kPa	228.04
2560 kPa	232.39
2575.6 kPa	236.13
